Data taken from publication PMC10379611 (International Journal of Molecular Sciences, 2023).
Entries after “also recorded” stand apart in the source; their conditions may differ.

How the values were obtained:
[1] = target: T1, ENT2 (Homo sapiens, UniProt Q14542); test: ENT2-mediated adenosine uptake in ENT2-MDCKII cells; format: cell-based
T1 construct: expressed in transfected cells; host or cells: MDCKII (lentiviral transduction)
T1 sequence (Q14542 1-456): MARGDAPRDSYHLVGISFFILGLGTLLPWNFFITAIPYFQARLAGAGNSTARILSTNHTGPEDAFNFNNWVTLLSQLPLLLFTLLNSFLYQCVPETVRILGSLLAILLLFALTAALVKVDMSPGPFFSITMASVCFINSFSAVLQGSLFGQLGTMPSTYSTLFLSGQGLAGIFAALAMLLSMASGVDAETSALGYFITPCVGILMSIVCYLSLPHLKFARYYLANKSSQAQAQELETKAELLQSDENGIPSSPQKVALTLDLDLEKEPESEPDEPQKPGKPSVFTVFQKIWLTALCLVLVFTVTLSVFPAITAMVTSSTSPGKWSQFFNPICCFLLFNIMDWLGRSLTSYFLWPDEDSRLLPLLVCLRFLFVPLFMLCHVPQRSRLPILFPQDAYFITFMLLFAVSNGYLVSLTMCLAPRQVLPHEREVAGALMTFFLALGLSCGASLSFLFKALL
Experimental: ENT and CNT transporter interactions were investigated in transporter-overexpressing cell lines. Madin-Darby Canine Kidney II (MDCKII) cell lines overexpressing the human uptake transporters CNT1, CNT2, ENT1, and ENT2 were generated via lentiviral transduction. Cell cultures were maintained in Dulbecco’s modified Eagle’s medium (DMEM) and 4500 mg/L of glucose supplemented with GlutaMax^TM, 10% v/v fetal bovine serum (FBS), 100 units/mL penicillin, and 100 µg/mL streptomycin (all from Gibco/ThermoFisher, Waltham, MA, USA) at 37 °C in 5% CO2 at 95% humidity. For uptake inhibition assays, transporter-expressing cells and mock-transduced control cells were seeded on 96-well tissue culture plates at a density of 1 × 10^5 cells/well. […] To determine the amounts of accumulated radiolabeled substrates, cell lysates mixed with a liquid scintillation cocktail were measured with a MicroBeta2 microplate counter (PerkinElmer, Singapore).
Transporter-specific accumulation of the probe substrate was calculated using the following formula: ACCSpec = ACCTRP − ACCMock, where ACCTRP is the accumulation of the probe in transporter-expressing cells and ACCMock is the accumulation of the probe in control cells. Relative transporter-specific accumulation values were calculated as percentages of the control value (with vehicle only).

[2] = tested on: OATP1B1; conditions: read-out: IC50 of OATP1B1; rosuvastatin transport; cited from earlier work
[3] = tested on: OATP1B3; conditions: read-out: IC50 for OATP1B3; cited from earlier work
[4] = target: ABCB1 (Homo sapiens, UniProt P08183); test: ABCB1 ATPase activity in Sf9 membrane vesicles; format: biochemical; design: purchased Solvo Biotechnology, Budapest; conditions: insect cell membrane vesicles
Sequence of ABCB1 (P08183 whole entry): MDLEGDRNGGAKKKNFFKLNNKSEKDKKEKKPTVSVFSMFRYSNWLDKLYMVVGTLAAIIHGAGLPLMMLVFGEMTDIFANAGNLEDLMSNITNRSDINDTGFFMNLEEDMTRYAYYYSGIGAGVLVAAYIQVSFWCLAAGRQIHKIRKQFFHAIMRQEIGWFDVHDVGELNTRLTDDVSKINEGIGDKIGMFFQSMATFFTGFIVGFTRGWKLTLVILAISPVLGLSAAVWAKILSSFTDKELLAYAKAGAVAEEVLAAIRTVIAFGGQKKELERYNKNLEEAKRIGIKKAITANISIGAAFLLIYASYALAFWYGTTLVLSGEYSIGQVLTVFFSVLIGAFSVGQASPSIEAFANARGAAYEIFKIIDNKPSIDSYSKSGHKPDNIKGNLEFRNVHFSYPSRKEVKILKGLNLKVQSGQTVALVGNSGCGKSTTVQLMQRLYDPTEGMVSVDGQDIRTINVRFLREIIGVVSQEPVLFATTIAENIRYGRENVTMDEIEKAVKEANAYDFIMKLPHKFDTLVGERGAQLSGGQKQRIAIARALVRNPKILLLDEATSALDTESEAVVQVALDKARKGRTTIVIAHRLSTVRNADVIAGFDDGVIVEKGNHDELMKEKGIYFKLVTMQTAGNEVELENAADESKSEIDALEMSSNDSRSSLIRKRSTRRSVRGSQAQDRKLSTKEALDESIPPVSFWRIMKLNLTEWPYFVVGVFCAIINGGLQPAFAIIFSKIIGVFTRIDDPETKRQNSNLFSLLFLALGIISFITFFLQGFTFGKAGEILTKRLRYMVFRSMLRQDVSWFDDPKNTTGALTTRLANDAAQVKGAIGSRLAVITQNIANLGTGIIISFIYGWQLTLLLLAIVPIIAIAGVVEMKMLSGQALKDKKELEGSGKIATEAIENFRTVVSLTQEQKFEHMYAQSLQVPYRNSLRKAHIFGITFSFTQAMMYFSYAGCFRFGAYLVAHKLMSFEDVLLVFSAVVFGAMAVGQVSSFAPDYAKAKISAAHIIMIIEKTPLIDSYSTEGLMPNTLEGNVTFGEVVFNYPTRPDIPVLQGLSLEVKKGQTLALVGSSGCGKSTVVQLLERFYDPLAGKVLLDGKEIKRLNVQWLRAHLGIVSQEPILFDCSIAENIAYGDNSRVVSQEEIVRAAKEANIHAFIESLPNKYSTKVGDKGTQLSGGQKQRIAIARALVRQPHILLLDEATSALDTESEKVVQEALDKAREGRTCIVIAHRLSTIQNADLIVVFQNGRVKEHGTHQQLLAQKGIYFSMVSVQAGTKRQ
Experimental: (§1) ATPase activity was measured in Sf9 membrane vesicles containing the respective human ABC transporters, as described in our earlier work. For ABCG2, the cholesterol level in the vesicles was increased to the level of mammalian cell membranes to obtain full activity. In brief, membrane vesicles (5 μg protein/sample) were incubated with 3 mM Mg-ATP and various concentrations of test compounds. Background ATPase activity of membranes was determined by applying the general ABC transporter inhibitor sodium orthovanadate (1 mM). Measurements were carried out for 20 min at 37 °C. The amount of phosphate liberated from ATP was detected using a colorimetric method and a VictorX3 plate reader at 660 nm Abs. Reference activators (50 µM verapamil for ABCB1 and 1 µM quercetin for ABCG2) served as positive controls.

[5] = target: T2, ABCG2 (Homo sapiens, UniProt Q9UNQ0); test: ABCG2 ATPase activity in Sf9 membrane vesicles; format: biochemical; design: purchased Solvo Biotechnology, Budapest; conditions: insect cell membrane vesicles
T2 sequence (Q9UNQ0 1-655): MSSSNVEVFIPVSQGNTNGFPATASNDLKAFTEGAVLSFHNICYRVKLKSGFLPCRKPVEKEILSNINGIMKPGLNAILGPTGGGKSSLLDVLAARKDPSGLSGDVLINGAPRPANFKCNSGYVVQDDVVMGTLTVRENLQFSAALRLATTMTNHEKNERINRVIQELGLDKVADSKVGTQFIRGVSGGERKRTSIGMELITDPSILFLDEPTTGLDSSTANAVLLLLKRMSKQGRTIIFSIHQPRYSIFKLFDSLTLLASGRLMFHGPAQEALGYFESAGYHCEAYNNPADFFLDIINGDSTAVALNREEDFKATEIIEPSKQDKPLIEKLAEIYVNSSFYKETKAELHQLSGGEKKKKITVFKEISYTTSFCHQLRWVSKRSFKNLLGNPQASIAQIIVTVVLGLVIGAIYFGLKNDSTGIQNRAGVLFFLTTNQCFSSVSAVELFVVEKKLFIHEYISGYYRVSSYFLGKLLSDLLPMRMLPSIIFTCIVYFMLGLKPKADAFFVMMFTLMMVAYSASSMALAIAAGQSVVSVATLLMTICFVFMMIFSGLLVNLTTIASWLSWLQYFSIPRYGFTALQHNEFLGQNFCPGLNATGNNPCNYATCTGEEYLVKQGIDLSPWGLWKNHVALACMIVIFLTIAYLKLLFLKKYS
Experimental: as §1

[6] = tested on: SARS-CoV-2; design: method as in PMID 34726479; conditions: cell culture tests; cited from earlier work

Structure (SMILES)	inhibition of adenosine uptake by ENT2 [1]	IC50 [2] [µM]	IC50 [3] [µM]	effect on transport-coupled ATPase activity of ABCB1 [4]	effect on ATPase activity of ABCG2 [5]	antiviral activity against SARS-CoV-2 [6]
CC(C)C(=O)OC[C@H]1O[C@@H](n2ccc(NO)nc2=O)[C@H](O)[C@@H]1O [EIDD-2801, Molnupiravir]	only mildly inhibited					
CC(C)(C)[C@H](NC(=O)C(F)(F)F)C(=O)N1C[C@H]2[C@@H]([C@H]1C(=O)N[C@H](C#N)C[C@@H]1CCNC1=O)C2(C)C [Nirmatrelvir]		[…]	> 100	significantly increased; also recorded: stimulated	no such effect	nanomolar range
